# Laboratory results as given in ChEMBL document CHEMBL1153316, “Selectivity profiling of DegP substrates and inhibitors” (Bioorg Med Chem, 2009).
# Peptide text beside a SMILES is read from it.
# Legend:
# [1] = Inhibition of chymotrypsin assessed as specific activity at 0.5 mM; parameters: scale not given: the % may be the effect or the level left
# [2] = Inhibition of elastase assessed as specific activity at 0.5 mM; parameters: scale not given: the % may be the effect or the level left
# [3] = biological target: Plasminogen (Homo sapiens) (UniProt P00747); assay: Inhibition of plasmin assessed as specific activity at 0.5 mM; parameters: scale not given: the % may be the effect or the level left
# [4] = Inhibition of kallikrein assessed as specific activity at 0.5 mM; parameters: scale not given: the % may be the effect or the level left
# Escherichia coli [5] = assay: Inhibition of Escherichia coli degP assessed as specific activity at 0.5 mM; parameters: scale not given: the % may be the effect or the level left
# [6] = biological target: Prothrombin (Homo sapiens) (UniProt P00734); assay: Inhibition of thrombin assessed as specific activity at 0.5 mM; parameters: scale not given: the % may be the effect or the level left
# Escherichia coli [7] = assay: Activity at Escherichia coli degP
# [8] = Inhibition of subtilisin assessed as specific activity at 0.5 mM; parameters: scale not given: the % may be the effect or the level left
# [9] = Inhibition of trypsin assessed as specific activity at 0.5 mM; parameters: scale not given: the % may be the effect or the level left
# [10] = biological target: Plasminogen (Homo sapiens) (UniProt P00747); assay: Inhibition of plasmin assessed as residual proteolytic activity at 0.5 mM
# [11] = Inhibition of chymotrypsin assessed as residual proteolytic activity at 0.5 mM
# [12] = Inhibition of kallikrein assessed as residual proteolytic activity at 0.5 mM
# [13] = Inhibition of subtilisin assessed as residual proteolytic activity at 0.5 mM
# Escherichia coli [14] = assay: Inhibition of Escherichia coli degP assessed as residual proteolytic activity at 0.5 mM
# [15] = Inhibition of elastase assessed as residual proteolytic activity at 0.5 mM
# [16] = Inhibition of trypsin assessed as residual proteolytic activity at 0.5 mM
# [17] = biological target: Prothrombin (Homo sapiens) (UniProt P00734); assay: Inhibition of thrombin assessed as residual proteolytic activity at 0.5 mM
# [18] = Inhibition of Escherichia coli degP
# [19] = Inhibition of subtilisin
# [20] = Inhibition of elastase
# Sequence of Plasminogen (Homo sapiens) (P00747 97-580 limits assumed): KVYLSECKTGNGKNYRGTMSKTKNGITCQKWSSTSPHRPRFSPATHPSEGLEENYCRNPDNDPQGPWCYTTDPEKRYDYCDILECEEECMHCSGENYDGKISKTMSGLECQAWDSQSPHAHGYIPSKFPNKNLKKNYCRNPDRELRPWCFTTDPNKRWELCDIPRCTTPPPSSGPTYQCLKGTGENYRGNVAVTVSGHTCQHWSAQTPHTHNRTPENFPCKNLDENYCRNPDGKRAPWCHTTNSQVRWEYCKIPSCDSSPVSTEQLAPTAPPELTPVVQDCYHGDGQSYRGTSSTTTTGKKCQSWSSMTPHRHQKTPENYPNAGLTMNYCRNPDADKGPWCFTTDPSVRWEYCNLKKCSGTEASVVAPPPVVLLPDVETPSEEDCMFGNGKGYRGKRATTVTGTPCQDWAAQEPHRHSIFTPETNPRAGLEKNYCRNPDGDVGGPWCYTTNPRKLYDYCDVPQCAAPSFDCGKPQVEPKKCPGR
# Sequence of Plasminogen (Homo sapiens) (P00747 581-810 limits assumed): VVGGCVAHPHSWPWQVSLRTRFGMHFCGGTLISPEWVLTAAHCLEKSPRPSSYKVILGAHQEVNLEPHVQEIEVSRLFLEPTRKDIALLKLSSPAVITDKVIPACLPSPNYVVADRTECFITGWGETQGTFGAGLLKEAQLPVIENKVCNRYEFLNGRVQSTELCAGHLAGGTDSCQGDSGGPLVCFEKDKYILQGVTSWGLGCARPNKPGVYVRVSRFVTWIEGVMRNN
SMILES,Activity [10],Activity [11],Activity [12],Activity [13],Activity (Escherichia coli [14]),Activity [15],Activity [16],Activity [17],also measured
CSCC[C@H](NC(=O)[C@@H]1CCCN1C(=O)[C@@H](N)CC(=O)O)C(=O)N[C@@H](Cc1ccccc1)C(=O)N[C@@H](CCCCN)C(=O)N[C@@H](CC(C)C)C(=O)N[C@H](C(=O)Nc1ccc([N+](=O)[O-])cc1)C(C)C (HELM PEPTIDE1{D.P.M.F.K.L.V.[O=[N+]([O-])c1ccc(N[*:1])cc1]}$$$$V2.0),–,–,–,–,–,–,–,–,Activity [1]: < 1%; Activity [2]: 4%; Activity [3]: < 1%; Activity [4]: < 1%; Activity (Escherichia coli [5]): 473%; Activity [6]: < 1%; Km (Escherichia coli [7]): 600 µM; Vmax (Escherichia coli [7]): 1.2 µmol/min; Activity [8]: 1%; Activity [9]: < 1%
CSCC[C@H](NC(=O)[C@H](CCSC)NC(=O)[C@@H]1CCCN1C(=O)[C@H](CC(C)C)NC(=O)[C@@H](NC(=O)[C@H](CC(N)=O)NC(=O)[C@H](Cc1ccccc1)NC(=O)[C@@H](N)C(C)C)[C@@H](C)O)C(=O)NCC(=O)N[C@@H](CCCCN)C(=O)N[C@@H](C)C(=O)N[C@@H](CO)C(=O)N1CCC[C@H]1C(=O)N[C@H](C(=O)CCl)C(C)C (HELM PEPTIDE1{V.F.N.T.L.P.M.M.G.K.A.S.P.V.[ClC[*:1]]}$$$$V2.0),75%,22%,88%,155%,57%,< 1%,287%,102%,–
CSCC[C@H](NC(=O)[C@@H]1CCCN1C(=O)[C@@H](N)CO)C(=O)N[C@@H](Cc1ccccc1)C(=O)N[C@@H](CCCCN)C(=O)NCC(=O)N[C@H](C(=O)CCl)C(C)C (HELM PEPTIDE1{S.P.M.F.K.G.V.[ClC[*:1]]}$$$$V2.0),81%,92%,101%,< 1%,3%,< 1%,354%,96%,IC50 [18]: 75 µM; IC50 [19]: 1 nM; IC50 [20]: 220 µM
